The values that follow come from PMC5417501, “Occurrence of urea-based soluble epoxide hydrolase inhibitors from the plants in the order Brassicales” (PLoS ONE, 2017).

As a reminder, the IC50 is the concentration that inhibits the measured activity by half. Broadly, the solubility is the dissolved amount per volume that the medium holds.

Data set [1] can be described thus: Overnight incubation of thiourea in water at room temperature without papaya seed. It counts as physicochemical. The following applies: 10 μM in water.
The target in the next data set is T1, human sEH (Homo sapiens, UniProt P34913).
T1 construct: made in house; host or cells: insect High Five cells (recombinant baculovirus)
T1 sequence (P34913 1-555): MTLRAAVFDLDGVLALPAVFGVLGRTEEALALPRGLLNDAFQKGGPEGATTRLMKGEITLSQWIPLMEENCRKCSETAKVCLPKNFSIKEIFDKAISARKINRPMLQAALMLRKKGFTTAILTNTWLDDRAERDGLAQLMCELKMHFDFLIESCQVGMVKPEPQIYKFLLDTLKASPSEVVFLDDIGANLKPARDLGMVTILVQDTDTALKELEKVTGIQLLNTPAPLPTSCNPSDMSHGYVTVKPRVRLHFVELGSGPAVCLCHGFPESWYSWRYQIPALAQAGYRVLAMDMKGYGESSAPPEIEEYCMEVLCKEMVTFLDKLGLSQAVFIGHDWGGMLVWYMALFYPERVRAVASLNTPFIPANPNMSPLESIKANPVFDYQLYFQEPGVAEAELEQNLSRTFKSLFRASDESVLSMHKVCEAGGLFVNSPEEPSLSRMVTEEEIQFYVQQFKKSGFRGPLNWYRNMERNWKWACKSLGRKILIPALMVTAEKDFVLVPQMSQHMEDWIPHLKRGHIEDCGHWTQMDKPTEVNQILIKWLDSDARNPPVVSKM
As to the kind of experiment: sEH inhibition by fluorescent assay (CMNPC assay), human enzyme. It counts as biochemical. Here is the method: (§1) Recombinant sEH was produced in insect High Five cells using recombinant baculovirus expression vectors, and purified by affinity chromatography as reported previously. The enzyme appeared as a single band (0.3 μg loading) with an estimated purity of more than 95% by Coomassie Brilliant Blue staining following SDS-PAGE separation. The final recombinant sEH preparations had no esterase or glutathione S-transferase activities, which interfere with the CMNPC assay as described below.
(§2) IC50 values were determined as described previously using cyano (2-methoxynaphthalen-6-yl) methyl trans-(3-phenyl-oxyran-2-yl) methyl carbonate (CMNPC) as a fluorescent substrate. Recombinant sEH (0.96 nM) was incubated with inhibitors for 5 min in 25 mM bis-Tris/HCl buffer (pH 7.0) containing 0.1 mg/mL of BSA at 30°C prior to substrate introduction ([S] = 5 μM). Activity was measured by determining the appearance of the 6-methoxy-2-naphthaldehyde with an excitation wavelength of 330 nm and an emission wavelength of 465 nm for 10 min.

Data set [2] has as its system carrageenan-induced inflammatory pain. The experiment in a line: Carrageenan-induced inflammatory pain model, intraplantar administration. It counts as in vivo. The following applies: rat, 10 µg/paw, p<0.05 vs. vehicle. Here is the method:
S8 Fig. Intraplantar administration of compound 3 effectively reduces carrageenan-induced inflammatory pain in rat. Administration of the inflammatory agent carrageenan (CAR) induces a stable hyperalgesic response for the duration of the experiment. Treatment with 3 (▲, 10 µg/paw, intraplantar), morphine (●, 10 µg/paw, intraplantar) or the potent synthetic sEH inhibitor (1-(1-(Cyclopropanecarbonyl) piperidin-4-yl)-3-(4- […]
pain levels (Kruskal-Wallis One Way ANOVA on Ranks, p≤0.001, Tukey’s post hoc test (compound 3 vs. vehicle, morphine vs. vehicle, TPCU vs. vehicle, p<0.05). Mean ± SE (n=6) of mechanical withdrawal threshold (% of naïve baseline) are shown. Vehicle (○), morphine (●), and TPCU (△) treatment data are from Rose et al., (2010).
(1 picture or pasted object on this page, not shown here)

Data set [3] addresses T2, rat sEH (Rattus norvegicus, UniProt P80299).
T2 construct: made in house; host or cells: insect High Five cells (recombinant baculovirus)
T2 sequence (P80299 1-554): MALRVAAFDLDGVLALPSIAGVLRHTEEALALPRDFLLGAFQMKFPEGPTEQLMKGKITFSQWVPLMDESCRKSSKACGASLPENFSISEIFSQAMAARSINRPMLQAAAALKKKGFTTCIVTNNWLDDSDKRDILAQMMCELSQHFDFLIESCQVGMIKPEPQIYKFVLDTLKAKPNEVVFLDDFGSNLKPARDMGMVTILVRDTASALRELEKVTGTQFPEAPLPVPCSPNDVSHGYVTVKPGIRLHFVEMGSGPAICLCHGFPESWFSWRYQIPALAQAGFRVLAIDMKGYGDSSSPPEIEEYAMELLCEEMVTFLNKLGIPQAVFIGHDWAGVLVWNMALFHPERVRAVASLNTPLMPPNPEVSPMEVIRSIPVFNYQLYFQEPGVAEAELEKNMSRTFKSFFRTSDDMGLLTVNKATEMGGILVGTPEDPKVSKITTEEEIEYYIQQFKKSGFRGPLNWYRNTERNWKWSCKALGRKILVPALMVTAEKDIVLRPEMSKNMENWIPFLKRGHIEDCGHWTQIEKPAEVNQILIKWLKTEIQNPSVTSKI
As to the kind of experiment: sEH inhibition by fluorescent assay (CMNPC assay), rat enzyme. In kind it is biochemical. The following applies: for IC50: CMNPC substrate, recombinant enzyme. Here is the method: as §1, §2

The nature of another data set: Solubility. In kind it is physicochemical.
The nature of data set [4]: Blood concentration during the pain assay after dermal treatment. In kind it is in vivo. The following applies: rat, dermal 6 mg/paw. As for the experimental part: (§3) Male Sprague-Dawley rats weighing 225–250 g were obtained from Charles River Laboratories and maintained in the UC Davis animal housing facility with ad libitum water and food on a 12 h/12 h light-dark cycle. Behavioral nociceptive testing was conducted by assessing mechanical withdrawal threshold using an electronic von Frey anesthesiometer apparatus (IITC, Woodland Hills, CA) as described previously. The analgesic effect of compound 3 was tested using the intraplantar carrageenan-induced local inflammatory pain model. Following baseline measurements, carrageenan (50 μL, 1% solution of carrageenan in ddH2O) was administered into the plantar area of one hind paw. At 4 h post administration of carrageenan, responses were measured, and immediately after these measurement, 3 (3% in PEG400/Vanicream™ (Pharmaceutical Specialties, Inc. Rochester, MN) = 3:7, 6 mg of compound/paw), the synthetic sEH inhibitor triclocarban (TCC, 3%), or the vehicle (200 μL of PEG400/Vanicream™) was administered onto the inflamed paw by topical application. The cream was thoroughly massaged across the entire hind paw surface over a 1–2 min period. Subsequently, the ability of these treatments to reduce the carrageenan-induced inflammatory pain was monitored over the course of 4 h.
(§4) Pharmacokinetic profiles of the inhibitors were determined by following the procedure described previously in literature with some modifications. Male Swiss Webster mice (7 weeks old, 24–30 g) were purchased from Charles River Laboratories. Inhibitors were dissolved in polyethylene glycol (average molecular weight: 300) to give a clear solution for oral administration. […] Blood (10 μL) was collected from the tail vein using a pipet tip rinsed with EDTA. The blood samples were prepared according to the methods detailed previously, and blood samples were analyzed by LC-MS/MS.

Data set [5] concerns carrageenan-induced inflammatory pain. The experiment in a line: Nociceptive assay, carrageenan-induced inflammatory pain model, topical application. It counts as in vivo. The following applies: rat, 6 mg/paw in PEG400/Vanicream, monitored 4 h, p ≤ 0.001. As for the experimental part:
as §3
Data were analyzed using SigmaPlot 11.0 for Windows (Systat Software Inc., San Jose, CA). […]

The nature of data set [6]: Pharmacokinetics after oral gavage (cassette dosing). It counts as in vivo. The following applies: mice. As for the experimental part:
as §4

For data set [7] the following is noted: value marked with footnote c, text of footnote not shown; cited from earlier work.
Data set [8] has as its target T2, rat sEH. Set-up: method as in PMID 21381656. The following applies: value marked with footnote e; cited from earlier work.

In brackets after ≈: the same amount, converted by molar mass. Several values for one entry are separate records, joined by “and”; a condition that tells them apart may be missing. Equal values may be shown once. Entries after “also recorded” stand apart in the source; their conditions may differ. Read-outs that look alike come from different tables or passages of the source.

As to `S=C(NCc1ccccc1)NCc1ccccc1` [1,3-dibenzylthiourea], the “converted into compound 1” value in data set [1] is “Approximately 10%”.

Take `COc1cccc(CNC(=O)NCc2cccc(OC)c2)c1` [Compound 3, 1,3-Bis (3-methoxybenzyl) urea]: the IC50 on human sEH (CMNPC substrate, recombinant enzyme, read-out: Human sEH IC50) was 222 nM and ~200 nM; at rat sEH [3] it was 155 nM. In addition, the “less potent than MMU” value on human sEH (human sEH) is recorded as “approximately 2 fold”. Besides, the “carrageenan-induced inflammatory pain (mechanical withdrawal threshold)” value in [2] was “significantly reduced”. For the same compound, the “solubility higher than MMU” value in “Solubility” was “approximately 10 fold”. Further, the concentration at 4 h in data set [4] (male, Sprague-Dawley, whole blood, topical, after 4 hours) was above 3000 nM. Further, the “blood concentration at peak” value in [4] (at 30 min) is on record as “higher than 40 μM”. In data set [4] (concluded from blood concentration), the permeability through skin entry is “high permeability through skin”. In data set [5], the “carrageenan induced inflammatory pain (mechanical withdrawal threshold)” value is listed as “significantly reduced carrageenan induced inflammatory pain; also recorded: significantly reduced pain levels”. In addition, in data set [6] (10 mg/kg by gavage in PEG300), the “absorption following oral administration” value is recorded as “rapidly absorbed”. Moreover, the “oral availability, comparison” value in data set [6] (gavage, compound 3 and AEPU 10 mg/kg, TPPU 0.3 mg/kg) is reported as “higher than that of AEPU”. Also, in data set [6] (oral 10 mg/kg, based on area under the curve values), the “portion of compound 3 metabolized into compound 6” value is recorded as “approximately 66%”.

Turning to `COc1ccc(CNC(=O)NCc2ccc(OC)cc2)cc1` [MMU, reference compound], the solubility in data set [7] was 11 ± 2 µM (≈ 3.3 µg/mL). Moreover, the IC50 on rat sEH [3] stood at 218 nM.

As for `O=C(Nc1ccc(Cl)cc1)Nc1ccc(Cl)c(Cl)c1` [TCC, triclocarban, reference compound], the “more potent than compound 3 on rat sEH” value at rat sEH [3] is given as “approximately 6 fold”. For the same compound, in data set [5], the “carrageenan induced inflammatory pain (mechanical withdrawal threshold)” value is “significantly reduced carrageenan induced inflammatory pain; also recorded: significantly reduced pain levels”. Besides, the IC50 on rat sEH [8] is 27 nM.
